Data from paper PMC2678953 (Journal of peptide science : an official publication of the …, 2008).

Experiments:
GIVA cPLA2 = biological target: T1, GIVA cPLA2 (Homo sapiens, UniProt P47712); assay: mixed-micelle PLA2 activity assay; format: biochemical
T1 sequence (P47712 1-749): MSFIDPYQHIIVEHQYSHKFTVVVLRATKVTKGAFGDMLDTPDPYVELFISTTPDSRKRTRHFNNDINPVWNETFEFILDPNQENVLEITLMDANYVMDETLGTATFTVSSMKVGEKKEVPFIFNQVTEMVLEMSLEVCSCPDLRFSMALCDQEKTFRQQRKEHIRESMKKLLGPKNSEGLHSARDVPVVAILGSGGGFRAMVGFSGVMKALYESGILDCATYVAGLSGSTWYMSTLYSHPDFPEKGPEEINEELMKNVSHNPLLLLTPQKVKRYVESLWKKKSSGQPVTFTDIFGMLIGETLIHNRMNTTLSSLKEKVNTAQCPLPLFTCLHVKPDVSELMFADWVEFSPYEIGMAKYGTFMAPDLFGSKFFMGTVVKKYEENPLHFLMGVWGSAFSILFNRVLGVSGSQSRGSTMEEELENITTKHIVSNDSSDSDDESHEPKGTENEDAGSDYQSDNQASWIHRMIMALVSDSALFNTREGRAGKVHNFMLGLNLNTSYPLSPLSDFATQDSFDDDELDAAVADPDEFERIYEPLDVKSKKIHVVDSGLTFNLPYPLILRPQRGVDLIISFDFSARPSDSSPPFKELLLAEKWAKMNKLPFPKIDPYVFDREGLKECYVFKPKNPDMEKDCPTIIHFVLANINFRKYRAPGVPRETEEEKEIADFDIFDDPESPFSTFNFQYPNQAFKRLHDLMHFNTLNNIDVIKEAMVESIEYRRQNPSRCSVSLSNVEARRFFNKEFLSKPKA

GVIA iPLA2 = biological target: T2, GVIA iPLA2 (Homo sapiens, UniProt O60733); assay: in vitro GVIA iPLA2 activity assay, XI; format: biochemical
T2 sequence (O60733 1-806): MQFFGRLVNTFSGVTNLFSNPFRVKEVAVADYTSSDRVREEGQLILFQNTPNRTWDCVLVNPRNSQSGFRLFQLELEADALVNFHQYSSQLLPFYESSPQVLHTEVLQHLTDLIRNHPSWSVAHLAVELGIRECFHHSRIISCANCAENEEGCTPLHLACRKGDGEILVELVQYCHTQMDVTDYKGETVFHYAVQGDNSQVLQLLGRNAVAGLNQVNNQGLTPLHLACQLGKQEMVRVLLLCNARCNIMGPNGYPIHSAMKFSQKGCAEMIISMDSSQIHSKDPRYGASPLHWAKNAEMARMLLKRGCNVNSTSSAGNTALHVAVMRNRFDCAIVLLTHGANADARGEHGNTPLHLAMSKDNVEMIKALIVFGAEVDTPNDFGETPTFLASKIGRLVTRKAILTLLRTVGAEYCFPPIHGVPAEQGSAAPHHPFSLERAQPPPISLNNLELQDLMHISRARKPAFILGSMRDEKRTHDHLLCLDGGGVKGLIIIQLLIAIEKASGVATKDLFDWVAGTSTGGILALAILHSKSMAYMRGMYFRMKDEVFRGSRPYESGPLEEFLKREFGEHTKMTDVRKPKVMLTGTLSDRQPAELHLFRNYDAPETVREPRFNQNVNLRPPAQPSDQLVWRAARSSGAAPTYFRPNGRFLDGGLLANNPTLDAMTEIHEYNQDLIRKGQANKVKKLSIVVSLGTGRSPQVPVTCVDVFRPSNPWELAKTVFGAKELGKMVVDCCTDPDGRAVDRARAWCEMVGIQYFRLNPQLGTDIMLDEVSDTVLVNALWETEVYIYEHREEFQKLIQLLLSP

Row | Structure (SMILES) | GIVA cPLA2 (GIVA cPLA2) | GVIA iPLA2 (GVIA iPLA2)
1 | CCCCCCCCCCCCCCC(=O)C(=O)NCCCC(=O)N(C)S(=O)(=O)c1ccc(C)cc1 [compound 20, N-[4-(N,4-Dimethylphenylsulfonamido)-4-oxobutyl)-2-oxohexadecanamide] | 0.033 ± 0.018 mole fraction (XI(50)) | –
2 | CCCCCCCCCCCCCCC(=O)C(=O)N[C@@H](CCCC)CCCNS(=O)(=O)c1ccc(C)cc1 [14b, (S)-N-[1-(4-Methylphenylsulfonamido)octan-4-yl]-2-oxohexadecanamide] | 0.033 ± 0.018 mole fraction (XI(50)) | –
3 | CCCCCCCCCCCCCCC(=O)C(=O)NCCCNS(=O)(=O)c1ccc(C)cc1 [5a, N-(3-(4-Methylphenylsulfonamido)propyl)-2-oxohexadecanamide] | 0.055 ± 0.006 mole fraction (XI(50)) | 0.076 ± 0.020 mole fraction (XI(50))
4 | CCCCCCCCCCCCCCC(=O)C(=O)N[C@@H](CCCC)CCCNS(C)(=O)=O [14a, (S)-N-[1-(Methylsulfonamido)octan-4-yl]-2-oxohexadecanamide] | 0.029 ± 0.019 mole fraction (XI(50)) | 0.060 ± 0.037 mole fraction (XI(50))
